Laboratory results published in US8124793B2, “Derivatives of ethylene methanedisulfonate as cancer chemotherapeutic agents” (priority 2007, dated 2012).

Tests used:
Type in all cases: cell-based
SR = test: NCI screen, growth of human tumor cells: Leukemia SR; details: SR (Leukemia), 10^−4 molar
Outline: (§1)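 Under the NCI protocol, every compound is profiled with sixty or more data points. Each point ties a cancer type and a molar screening concentration to a percent growth value.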

SNB-75 = test: NCI screen, growth of human tumor cells: CNS Cancer SNB-75; details: SNB-75 (CNS Cancer), 10^−4 molar
Outline: as §1

UACC-62 = test: NCI screen, growth of human tumor cells: Melanoma UACC-62
Outline: as §1

U-251 = test: NCI screen, growth of human tumor cells: CNS Cancer U-251; details: U-251 (CNS Cancer), 10^−4 molar
Outline: as §1

CAKI-1 = test: NCI screen, growth of human tumor cells: Renal Cancer CAKI-1; details: CAKI-1 (Renal Cancer), 10^−4 molar
Outline: as §1

786-0 = test: NCI screen, growth of human tumor cells: Renal Cancer 786-0; details: 786-0 (Renal Cancer), 10^−4 molar
Outline: as §1

UO-31 = test: NCI screen, growth of human tumor cells: Renal Cancer UO-31; details: UO-31 (Renal Cancer), 10^−4 molar
Outline: as §1

ACHN = test: NCI screen, growth of human tumor cells: Renal Cancer ACHN; details: ACHN (Renal Cancer), 10^−4 molar
Outline: as §1

MCF7/ADR-RES = test: NCI screen, growth of human tumor cells: Breast Cancer MCF7/ADR-RES; details: MCF7/ADR-RES (Breast Cancer), 10^−4 molar
Outline: as §1

SF-268 = test: NCI screen, growth of human tumor cells: CNS Cancer SF-268; details: SF-268 (CNS Cancer), 10^−4 molar
Outline: as §1

human cancer cells = test: NCI screen summary over the cancers tested (negative growth of human cancer cells); details: 10^−4 M conc.; cancers with negative growth / cancers tested
Description: (§2) In the NCI screening process, each compound was tested and described by a minimum of 60 data points. The test data include, but are not limited to the type of cancer, the molar concentration used in the screen, and the percent growth of the cancer. In some cases, NMR and elemental analysis were used for structural assignment.
The derivatives in the tables are grouped using the same category as in the tables 1-6.

T-47D = test: NCI screen, growth of human tumor cells: Breast Cancer T-47D; details: T-47D (Breast Cancer), 10^−4 molar
Description: as §2

HOP-92 = test: NCI screen, growth of human tumor cells: Non-Small Cell Lung HOP-92; details: HOP-92 (Non-Small Cell Lung), 10^−4 molar
Outline: as §1

MCF 7 = test: NCI screen, growth of human tumor cells: Breast Cancer MCF 7; details: MCF 7 (Breast Cancer), 10^−4 molar
Outline: as §1

SF-539 = test: NCI screen, growth of human tumor cells: CNS Cancer SF-539; details: SF-539 (CNS Cancer), 10^−4 molar
Outline: as §1

NCI-H460 = test: NCI screen, growth of human tumor cells: Non-Small Cell Lung NCI-H460; details: NCI-H460 (Non-Small Cell Lung), 10^−4 molar
Outline: as §1

BT-549 = test: NCI screen, growth of human tumor cells: Breast Cancer BT-549; details: BT-549 (Breast Cancer), 10^−4 molar
Outline: as §1

SF-295 = test: NCI screen, growth of human tumor cells: CNS Cancer SF-295
Outline: as §1

LOXIMVI = test: NCI screen, growth of human tumor cells: Melanoma LOXIMVI; details: for % Growth: LOXIMVI
Description: as §2

SW620 = test: NCI screen, growth of human tumor cells: Colon Cancer SW620
Description: as §2

HL-60 (TB) = test: NCI screen, growth of human tumor cells: Leukemia HL-60 (TB); details: HL-60 (TB) (Leukemia), 10^−4 molar
Description: as §2

C[Si](C)(OCCS(=O)(=O)O)C1S(=O)(=O)OCCOS1(=O)=O [NSC 674991]
percent of growth of human tumor cells (SR): 20%
percent of growth of human tumor cells (SNB-75): −24%
% Growth (UACC-62; UACC-62, 10^−4 molar): 5%
% Growth (UACC-62; UACC-62, 10^−5 molar): 57%
percent of growth of human tumor cells (U-251): 9%
percent of growth of human tumor cells (CAKI-1): −8%
percent of growth of human tumor cells (786-0): 16%
percent of growth of human tumor cells (UO-31): 29%
percent of growth of human tumor cells (ACHN): −10%
percent of growth of human tumor cells (MCF7/ADR-RES): 20%
percent of growth of human tumor cells (SF-268): 11%
Percentage of cancers showing negative growth cancers tested (human cancer cells): 10^−4 M conc. = 6/21 = 28.6%
percent of growth of human tumor cells (T-47D): 18%
percent of growth of human tumor cells (HOP-92): 22%
percent of growth of human tumor cells (MCF 7): 22%
percent of growth of human tumor cells (SF-539): 4%
percent of growth of human tumor cells (NCI-H460): 22%
percent of growth of human tumor cells (BT-549): 11%
% Growth (SF-295; SF-295, 10^−4 molar): −31%
% Growth (SF-295; SF-295, 10^−5 molar): 31%
percent of growth of human tumor cells (LOXIMVI; LOXIMVI (Melanoma), 10^−4 molar): 10%
% Growth (LOXIMVI; 10^−4 molar): −90%
% Growth (LOXIMVI; 10^−5 molar): 63%
% Growth (SW620; SW620, 10^−4 molar): −49%
% Growth (SW620; SW620, 10^−5 molar): 34%
% Growth (SW620; SW620, 10^−6 molar): 25%
percent of growth of human tumor cells (HL-60 (TB)): 15%
